The values that follow come from patent publication US20240065988A1, “COMBINED USE OF KETAMINE AND RETIGABINE (EZOGABINE) FOR THE TREATMENT OF PSYCHIATRIC DISORDERS” (Yeda Research and Development Co. Ltd., priority 2021, published 2024).

The subject of test [1] is Kcnq2 mRNA in glutamatergic neurons of the vHipp. Put plainly: qPCR mRNA levels in FACS-sorted glutamatergic neurons (Ai9+/tdTomato+) and remaining cells (Ai9-/tdTomato-) of Nex-Cre-Ai9 mice. The class given is in vivo, mouse. Particulars: for mRNA levels of 8 top DEGs: ketamine vs saline. The source says:
Conditional transgenic mice expressing tdTomato in glutamatergic neurons of the forebrain (Nex-Cre;Ai9) were generated by crossing homozygous Nex-Cre mice [described in S. Goebbels et al., Genesis (2006) 44: 611-621] with homozygous Ai9 mice [Gt(ROSA)26Sortm9(CAG-tdTomato)Hze] [described in L. Madisen et al., Nat Neurosci (2010) 13: 133-140].
In order to further investigate these findings, a conditional reporter mouse line (Nex-Cre-Ai9) was generated where most glutamatergic neurons of the forebrain, including the hippocampus, are fluorescently labeled by tdTomato (Ai9) except for neurons in the dentate gyrus where Neurod6, the promoter used to target glutamatergic neurons driving Cre expression, is not expressed (FIG. 12) [J. Hartmann et al., Mol Psychiatry (2017) 22: 466-475]. Following the same paradigm used in the original cohort, mice were group-housed and injected with (R,S)-ketamine (10 mg/kg BW) or a saline vehicle control. The vHipp of these mice was dissected […] later (i.e. 2 days). Single-cell suspensions were prepared and individual cells were sorted using fluorescence activated cell sorting (FACS) (FIG. 2A) into two separate pools of cells from each mouse. One pool contained glutamatergic neurons (Ai9+) and a second contained all remaining cell types of the vHipp (Ai9-) (FIG. 2A and FIGS. 13A-C). […] These two separate pools of cells were then used to validate the scRNA-seq findings in glutamatergic neurons at the population level using quantitative real-time polymerase chain reaction (qPCR).
Next, it was tested whether retigabine can produce similar synergistic effects in combination with traditional antidepressants.
(Quantitative PCR measures a nucleic acid by following its amplification.)

In test [2] the test system is KCNQ channel (KCNQ2/3, M-current). Put plainly: Ex vivo patch-clamp recording of IM current density in CA1 pyramidal neurons of acute vHipp slices. On the set-up: species or system mouse. Conditions: ketamine 10 mg/kg BW i.p., 36 hours before slice preparation vs saline.
For test [3], the system named is mice (C57BL/6N). Put plainly: Forced swim test (FST), pharmacological manipulation of KCNQ. The class given is in vivo, mouse. The procedure: C57BL/6N and CD-1 (ICR) male mice aged 10 weeks old were used in these experiments. Ketamine hydrochloride (Ketaset, Zoetis, Germany) was diluted in 0.9% NaCl solution (saline) and administered i.p at 1, 5 or 10 mg/kg BW, depending on the experiment design. The KNCQ inhibitor, XE991 (Alomone labs; Cat #: X-100) was diluted in 5% DMSO and administered i.p at 1 or 3 mg/kg BW. The KCNQ activator, Retigabine (Alomone labs; Cat #: R-100), was diluted in 5% DMSO and administered i.p at 1 or 5 mg/kg BW. As control, mice were injected with a DMSO-saline solution (5% DMSO). For all experiments, mice were tested 30 minutes after injection in the FST or over a period of 36 hours after injection in the social boxes.
Previous studies in rodents have shown that KCNQ function can be regulated with highly-specific agonists and antagonists [V. Barrese et al., Annu Rev Pharmacol Toxicol (2018) 58: 625-648]. To further explore the KCNQ channel as a potential therapeutic target of ketamine, it was examined whether pharmacological inhibition of KCNQ alone or in combination with ketamine had any effects on behavior. To accomplish this, a new cohort of mice received two injections with a combination of drugs. […] To assess the effects of ketamine, XE991 (KCNQ inhibitor), and its combination, these mice were exposed to a FST (FIG. 7A, left). […] The inventors then sought to test whether the effects of ketamine could be mimicked, increased or amplified using retigabine, also known as ezogabine, a selective KCNQ (Kcnq2/3) channel activator. Similarly to the previous experiment, mice were treated with saline, (R,S)-ketamine (10 mg/kg BW), or ketamine in combination with two different concentrations of retigabine (1 and 5 mg/kg BW) (FIG. 7A, right).
Next, it was examined whether retigabine could increase the sustained antidepressant-like effects produced by a single injection of ketamine in mice. Accordingly, a new cohort of mice were treated with a single dose of saline, ketamine, or ketamine in combination with retigabine (1 mg/kg) and antidepressant-like behaviors were assessed using the FST, 5—and 7-days post-injection (FIG. 8A). […] Next, as a potential therapeutic strategy for major depressive disorder (MDD), the synergistic effects of ketamine and retigabine was further investigated by testing whether or not retigabine can increase the antidepressant-like effects produced by ketamine in mice. […] Next, it was tested whether retigabine can produce similar synergistic effects in combination with traditional antidepressants. […] Lastly, using a new cohort of Nex-Cre-Ai9 mice, it was tested whether the adjunctive treatment of ketamine with retigabine, or escitalopram alone, could modify the expression of Kcnq2 mRNA in FACS sorted cells from the vHipp (FIG. 8F).

Each structure is given as a SMILES string. “Also recorded” adds a separate entry of the source.

As for `CNC1(c2ccccc2Cl)CCCCC1=O` (racemic) [ketamine, (R,S)-ketamine], the “Kcnq2 mRNA fold change (FC) after ketamine treatment” value in test [1] (Ai9+ cells, ketamine 10 mg/kg BW vs saline, 36 hours, p<0.001) is recorded as 2.2. The “mRNA levels of 8 top DEGs” value is “significantly dysregulated” in test [1] (Ai9+ cells) and “No significant differences” in test [1] (Ai9- cells). Further, in test [1] (any of the experiments: scRNA-seq, FACS-sorted cells, primary neurons (Table 2B, FIGS. 17A-C)), the “mRNA expression of Kcnq3 after ketamine treatment” value is “no significant differences”. Moreover, in test [1] (glutamatergic neurons (tdTomato+) of the vHipp, two days after treatment, ketamine 10, escitalopram 10, retigabine 1 mg/kg/BW), the “Kcnq2 mRNA” value is listed as “significant increase of Kcnq2 mRNA”. In addition, the “total number of Ai9+ sorted cells, ketamine vs saline” value in test [1] (ketamine 10 mg/kg BW, 36 hours) is recorded as “No significant differences”. Moreover, in test [2], the IM current density entry was “significant increase in IM current density”. The “immobility time during the FST” value in test [3] ((R,S)-ketamine 10 mg/kg/BW, dose series (FIG. 8E, FIG. 26A)) is “significant reduction of immobility time”; in test [3] (ketamine 10 mg/kg BW alone vs saline (FIGS. 23A-B)), “significant decrease in immobility time; also recorded: significant effect”. In addition, the “antidepressant-like effects in the FST” value in test [3] ((R,S)-ketamine 1 and 5 mg/kg/BW) is on record as “failed to produce antidepressant-like effects”. Further, in test [3] (single dose of ketamine alone), the “FST effect at day 7 post-injection” value is reported as “disappeared by day 7”. Also, in test [3] (single dose of ketamine alone), the “duration of the FST effect post-injection” value is listed as “up to five days”. Moreover, the “immobility time during the FST, sustained effect” value in test [3] (single dose of ketamine alone, several days post-injection (day 5)) is recorded as “significant decrease in immobility time”.
